{"source": "paper PMC6934184", "about": "“Selective DNA-PKcs inhibition extends the therapeutic index of localized radiotherapy and chemotherapy” (The Journal of Clinical Investigation, 2019)", "molecular_target": "T1, GSG2 (Haspin) (Homo sapiens, UniProt Q8TF76)", "T1 construct": "purchased Thermo Fisher Scientific (Life Technologies) SelectScreen", "T1 sequence (Q8TF76 whole entry)": "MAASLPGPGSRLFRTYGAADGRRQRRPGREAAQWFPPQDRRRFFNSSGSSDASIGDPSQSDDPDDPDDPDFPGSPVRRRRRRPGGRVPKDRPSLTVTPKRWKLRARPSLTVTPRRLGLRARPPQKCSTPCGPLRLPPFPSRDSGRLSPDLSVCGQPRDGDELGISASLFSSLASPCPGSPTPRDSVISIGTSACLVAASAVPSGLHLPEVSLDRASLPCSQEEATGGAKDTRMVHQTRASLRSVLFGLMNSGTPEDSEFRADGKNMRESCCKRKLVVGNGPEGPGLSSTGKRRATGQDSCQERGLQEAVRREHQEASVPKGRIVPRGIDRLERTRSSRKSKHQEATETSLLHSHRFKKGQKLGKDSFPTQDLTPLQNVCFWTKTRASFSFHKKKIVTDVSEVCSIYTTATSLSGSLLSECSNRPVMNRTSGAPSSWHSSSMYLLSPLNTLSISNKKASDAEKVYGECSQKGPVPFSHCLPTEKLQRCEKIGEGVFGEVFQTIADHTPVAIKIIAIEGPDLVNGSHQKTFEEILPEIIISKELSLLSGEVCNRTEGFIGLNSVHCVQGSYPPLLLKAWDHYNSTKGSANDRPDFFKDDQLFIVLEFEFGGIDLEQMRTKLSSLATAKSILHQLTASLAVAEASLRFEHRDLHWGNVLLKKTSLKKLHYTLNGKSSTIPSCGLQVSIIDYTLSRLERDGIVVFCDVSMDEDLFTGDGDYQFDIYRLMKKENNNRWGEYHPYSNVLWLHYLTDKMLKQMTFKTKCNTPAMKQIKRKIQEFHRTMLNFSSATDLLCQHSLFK", "test": "SelectScreen Adapta", "assay_type": "biochemical", "method_in_brief": "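SelectScreen broad panel; activity (Z'LYTE, Adapta) plus binding formats. ATP: Km app for CSF1R Z'LYTE; 10 for CAMK1 Adapta. Readout = % per kinase.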", "data": [{"compound": "CN(C(=O)CN1CCOCC1)c1ccc2sc3c(-c4cccc5c(=O)cc(N6CC7CCC(C6)O7)oc45)cccc3c2c1", "note": "[NU5455]", "values": [{"measurement": "inhibition at 1 µM", "result": -15, "unit": "%"}]}]}
